Legend:
[1] = human
[2] = human, serum
[3] = human, serum, 4383 h
[4] = human; remark: listed apart in the source
[5] = human; remark: listed apart in the source
[6] = Times to onset, minimal and maximal, observed in the indexed observations. [column 'DELAI' in source]; conditions: human
[7] = human; remark: listed apart in the source
[8] = Presence of at least one case with successful reintroduction. [column 'REINT' in source]; conditions: human
[9] = human, serum; remark: listed apart in the source
[10] = Highest frequency of moderate liver toxicity observed during clinical trials, expressed as a percentage. [column '% BIOL' in source]; conditions: human
[11] = human; remark: listed apart in the source
[12] = human; remark: listed apart in the source
[13] = human; remark: listed apart in the source
[14] = Comments (NB not yet translated). [column 'COMMENTAIRES' in source]; conditions: human
[15] = human; remark: listed apart in the source
[16] = human; remark: listed apart in the source
[17] = Proposed mechanism(s) of liver damage. [column 'MEC' in source]; conditions: human
[18] = Highest frequency of acute liver toxicity observed during clinical trials, expressed as a percentage. [column '% AIGUE' in source]; conditions: human
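Wherever Hepatotoxicity (association with vascular disease) is given: count of indexed literature references reporting vascular liver injury in humans, e.g. peliosis hepatitis, hepatic veno-occlusive disease or Budd-Chiari syndrome.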
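Wherever Hepatotoxicity (benign tumour) is given: value is a count of indexed literature references citing a benign tumour confirmed by histopathology.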
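Wherever Hepatotoxicity (choleostasis) is given: human cholestatic liver injury, shown by histopathology or by peak ALT or AST elevation over alkaline phosphatase ratio below 2, value counts indexed literature reports.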
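Wherever Hepatotoxicity (chronic liver disease) is given: chronic liver injury confirmed by histopathology or persistently raised serum aminotransferase activity beyond 6 months, value given as the count of indexed literature references.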
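Wherever Hepatotoxicity (cirrhosis) is given: value is a count of indexed literature references reporting cirrhosis confirmed by histopathology.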
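Wherever Hepatotoxicity (cytolytic) is given: human cytolytic liver injury, shown by histopathology or by a ratio above 5 of peak ALT or AST elevation to alkaline phosphatase elevation, value counts indexed references.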
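Wherever Hepatotoxicity (granulomatous hepatitis) is given: value is a count of indexed literature references reporting granulomatous liver disease confirmed by histopathology.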
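Wherever Hepatotoxicity (malignant tumour) is given: malignant tumour confirmed by histopathology, value gives the count of indexed literature references reporting it.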
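Wherever Hepatotoxicity (severe hepatitis) is given: human clinical data: severe hepatitis, meaning potentially life-threatening liver failure or clinically observed cases, the value counts how many indexed literature references report it.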
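Wherever Hepatotoxicity (steatosis) is given: steatosis confirmed by histopathology, value is the count of indexed references.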

## C[C@](N)(Cc1ccc(O)c(O)c1)C(=O)O [METHYLDOPA]
[1]
  Hepatotoxicity (malignant tumour): 1
[2]
  Hepatotoxicity (moderate): 10
[3]
  Hepatotoxicity (chronic liver disease): 27
[4]
  Hepatotoxicity (granulomatous hepatitis): 8
[5]
  Hepatotoxicity (choleostasis): 10
[6]
  Hepatotoxicity (time to onset): 3 days - 12 years
[7]
  Hepatotoxicity (cytolytic): 16
[8]
  Hepatotoxicity (successful reintroduction): yes
[9]
  Hepatotoxicity (acute): 24
[10]
  Hepatotoxicity (moderate): 35%
[11]
  Hepatotoxicity (severe hepatitis): 13
[12]
  Hepatotoxicity (steatosis): 3
[13]
  Hepatotoxicity (benign tumour): 0
[14]
  Hepatotoxicity (comment): AC_ANTI-N/-ML/-MF RC/ALLOPURINOL
[15]
  Hepatotoxicity (association with vascular disease): 0
[16]
  Hepatotoxicity (cirrhosis): 7
[17]
  Hepatotoxicity (mechanism): Allergic, Toxic
[18]
  Hepatotoxicity (acute): 1.3%

## INTERFERON BETA
[1]
  Hepatotoxicity (malignant tumour): 0
[2]
  Hepatotoxicity (moderate): 33
[3]
  Hepatotoxicity (chronic liver disease): 0
[4]
  Hepatotoxicity (granulomatous hepatitis): 0
[5]
  Hepatotoxicity (choleostasis): 0
[6]
  Hepatotoxicity (time to onset): 3 days - 2 years
[7]
  Hepatotoxicity (cytolytic): 5
[8]
  Hepatotoxicity (successful reintroduction): yes
[9]
  Hepatotoxicity (acute): 10
[10]
  Hepatotoxicity (moderate): 100%
[11]
  Hepatotoxicity (severe hepatitis): 1
[12]
  Hepatotoxicity (steatosis): 0
[13]
  Hepatotoxicity (benign tumour): 0
[14]
  Hepatotoxicity (comment): AC_ANTI-N/-ML
[15]
  Hepatotoxicity (association with vascular disease): 0
[16]
  Hepatotoxicity (cirrhosis): 0
[17]
  Hepatotoxicity (mechanism): Allergic, Dose-dependant
[18]
  Hepatotoxicity (acute): 31.2%

## CN(C)CCC=C1c2ccccc2COc2ccccc21 [DOXEPIN]
[1]
  Hepatotoxicity (malignant tumour): 0
[2]
  Hepatotoxicity (moderate): 3
[3]
  Hepatotoxicity (chronic liver disease): 0
[4]
  Hepatotoxicity (granulomatous hepatitis): 0
[5]
  Hepatotoxicity (choleostasis): 1
[6]
  Hepatotoxicity (time to onset): 1 week
[7]
  Hepatotoxicity (cytolytic): 2
[8]
  Hepatotoxicity (successful reintroduction): yes
[9]
  Hepatotoxicity (acute): 2
[10]
  Hepatotoxicity (moderate): 33.3%
[11]
  Hepatotoxicity (severe hepatitis): 0
[12]
  Hepatotoxicity (steatosis): 0
[13]
  Hepatotoxicity (benign tumour): 0
[14]
  Hepatotoxicity (comment): AC_ANTI-ML
[15]
  Hepatotoxicity (association with vascular disease): 0
[16]
  Hepatotoxicity (cirrhosis): 0
[17]
  Hepatotoxicity (mechanism): Allergic
[18]
  Hepatotoxicity (acute): 0%

## O=C(O)CCCCCCNC1c2ccccc2CCc2ccccc21 [AMINEPTINE]
[1]
  Hepatotoxicity (malignant tumour): 0
[2]
  Hepatotoxicity (moderate): 6
[3]
  Hepatotoxicity (chronic liver disease): 0
[4]
  Hepatotoxicity (granulomatous hepatitis): 0
[5]
  Hepatotoxicity (choleostasis): 18
[6]
  Hepatotoxicity (time to onset): 1 day - 10 months
[7]
  Hepatotoxicity (cytolytic): 17
[8]
  Hepatotoxicity (successful reintroduction): yes
[9]
  Hepatotoxicity (acute): 20
[10]
  Hepatotoxicity (moderate): 0.6%
[11]
  Hepatotoxicity (severe hepatitis): 0
[12]
  Hepatotoxicity (steatosis): 5
[13]
  Hepatotoxicity (benign tumour): 0
[14]
  Hepatotoxicity (comment): RC/CLOMIPRAMINE
[15]
  Hepatotoxicity (association with vascular disease): 0
[16]
  Hepatotoxicity (cirrhosis): 1
[17]
  Hepatotoxicity (mechanism): Allergic, Reactive metabolite
[18]
  Hepatotoxicity (acute): 0%

## COc1ccc2c(C(=O)c3ccc(Cl)cc3)c(C)n(CC(=O)O)c2c1 [CLOMETACIN]
[1]
  Hepatotoxicity (malignant tumour): 0
[2]
  Hepatotoxicity (moderate): 6
[3]
  Hepatotoxicity (chronic liver disease): 21
[4]
  Hepatotoxicity (granulomatous hepatitis): 0
[5]
  Hepatotoxicity (choleostasis): 12
[6]
  Hepatotoxicity (time to onset): 1 week - 10 years
[7]
  Hepatotoxicity (cytolytic): 14
[8]
  Hepatotoxicity (successful reintroduction): yes
[9]
  Hepatotoxicity (acute): 18
[10]
  Hepatotoxicity (moderate): 0%
[11]
  Hepatotoxicity (severe hepatitis): 9
[12]
  Hepatotoxicity (steatosis): 0
[13]
  Hepatotoxicity (benign tumour): 0
[14]
  Hepatotoxicity (comment): AC_ANTI-ADN/-ML HLAB8
[15]
  Hepatotoxicity (association with vascular disease): 0
[16]
  Hepatotoxicity (cirrhosis): 9
[17]
  Hepatotoxicity (mechanism): Allergic
[18]
  Hepatotoxicity (acute): 0%

## O=C(O)COCCN1CCN(C(c2ccccc2)c2ccc(Cl)cc2)CC1 (configuration not stated) [CETIRIZINE]
[1]
  Hepatotoxicity (malignant tumour): 0
[2]
  Hepatotoxicity (moderate): 1
[3]
  Hepatotoxicity (chronic liver disease): 0
[4]
  Hepatotoxicity (granulomatous hepatitis): 0
[5]
  Hepatotoxicity (choleostasis): 1
[6]
  Hepatotoxicity (time to onset): 1 day - 2 years
[7]
  Hepatotoxicity (cytolytic): 4
[8]
  Hepatotoxicity (successful reintroduction): yes
[9]
  Hepatotoxicity (acute): 5
[10]; Liver
  Hepatotoxicity (moderate): 3.8%
[11]; Liver
  Hepatotoxicity (severe hepatitis): 0
[12]
  Hepatotoxicity (steatosis): 0
[13]
  Hepatotoxicity (benign tumour): 0
[14]
  Hepatotoxicity (comment): AC_ANTI-MFR1
[15]
  Hepatotoxicity (association with vascular disease): 0
[16]
  Hepatotoxicity (cirrhosis): 0
[17]
  Hepatotoxicity (mechanism): Allergic
[18]; Liver
  Hepatotoxicity (acute): 0%

## CCC1(c2ccccc2)C(=O)NC(=O)NC1=O [PHENOBARBITAL]
[1]
  Hepatotoxicity (malignant tumour): 0
[2]
  Hepatotoxicity (moderate): 8
[3]
  Hepatotoxicity (chronic liver disease): 1
[4]
  Hepatotoxicity (granulomatous hepatitis): 1
[5]
  Hepatotoxicity (choleostasis): 4
[6]
  Hepatotoxicity (time to onset): 6 days - 2 years
[7]
  Hepatotoxicity (cytolytic): 23
[8]
  Hepatotoxicity (successful reintroduction): yes
[9]
  Hepatotoxicity (acute): 30
[10]
  Hepatotoxicity (moderate): 0%
[11]
  Hepatotoxicity (severe hepatitis): 10
[12]
  Hepatotoxicity (steatosis): 1
[13]
  Hepatotoxicity (benign tumour): 0
[14]
  Hepatotoxicity (comment): I/PARACETAMOL AC_ANTI-N/-MF CHOLANGITE
[15]
  Hepatotoxicity (association with vascular disease): 0
[16]
  Hepatotoxicity (cirrhosis): 0
[17]
  Hepatotoxicity (mechanism): Allergic
[18]
  Hepatotoxicity (acute): 0%

## CC(C)Cc1ccc(C(C)C(=O)O)cc1 (configuration not stated) [IBUPROFEN]
[1]
  Hepatotoxicity (malignant tumour): 0
[2]
  Hepatotoxicity (moderate): 10
[3]
  Hepatotoxicity (chronic liver disease): 1
[4]
  Hepatotoxicity (granulomatous hepatitis): 0
[5]
  Hepatotoxicity (choleostasis): 6
[6]
  Hepatotoxicity (time to onset): 1 day - 4 months
[7]
  Hepatotoxicity (cytolytic): 14
[8]
  Hepatotoxicity (successful reintroduction): yes
[9]
  Hepatotoxicity (acute): 20
[10]; Liver
  Hepatotoxicity (moderate): 16%
[11]; Liver
  Hepatotoxicity (severe hepatitis): 6
[12]
  Hepatotoxicity (steatosis): 1
[13]
  Hepatotoxicity (benign tumour): 0
[14]
  Hepatotoxicity (comment): RC/DICLOFENAC CHOLESTASE_PROLONGEE DUCTOPENIE REACTIVATION_HSV6
[15]
  Hepatotoxicity (association with vascular disease): 0
[16]
  Hepatotoxicity (cirrhosis): 1
[17]
  Hepatotoxicity (mechanism): Allergic, Overdose
[18]; Liver
  Hepatotoxicity (acute): 0%

## Nc1ccn([C@@H]2O[C@H](CO)[C@@H](O)[C@@H]2O)c(=O)n1 [CYTARABINE]
[1]
  Hepatotoxicity (malignant tumour): 0
[2]
  Hepatotoxicity (moderate): 33
[3]
  Hepatotoxicity (chronic liver disease): 0
[4]; Liver
  Hepatotoxicity (granulomatous hepatitis): 0
[5]; Liver
  Hepatotoxicity (choleostasis): 3
[6]
  Hepatotoxicity (time to onset): 1 cure - 2 cures
[7]; Liver
  Hepatotoxicity (cytolytic): 6
[8]
  Hepatotoxicity (successful reintroduction): yes
[9]
  Hepatotoxicity (acute): 14
[10]; Liver
  Hepatotoxicity (moderate): 75%
[11]; Liver
  Hepatotoxicity (severe hepatitis): 6
[12]
  Hepatotoxicity (steatosis): 0
[13]
  Hepatotoxicity (benign tumour): 0
[14]
  Hepatotoxicity (comment): HCF HNR REACTIVATION_HVB MVO
[15]
  Hepatotoxicity (association with vascular disease): 7
[16]
  Hepatotoxicity (cirrhosis): 0
[17]; Liver
  Hepatotoxicity (mechanism): Dose-dependant
[18]; Liver
  Hepatotoxicity (acute): 28.6%

Reference: ChEMBL document CHEMBL3137667, “[Drug-induced liver injury; fourteenth updated edition of the bibliographic database of liver injuries and related drugs]” (Gastroenterol Clin Biol, 2004)
